Results as given in patent US7951772B2, “Tumor-activated prodrug compounds and treatment” (La Region Wallonne, priority 1994, dated 2011).
≈ marks a conversion by molar mass, not a printed value. Where “and” joins values, the source holds several entries; their conditions need not be identical. Equal entries are not always repeated. Where two headings read alike, the source gives them in different places. One block for each molecule: values may come before it. Square brackets hold non-standard residues; d marks the D form. Peptide text beside a SMILES is read from it. * marks the point of attachment. X1 = COc1cccc2c1C(=O)c1c(O)c3c(c(O)c1C2=O)CC(O)(C(=O)CO)CC3OC1CC(N*)C(O)C(C)O1; pGlu = O=C1CC[CH](C(=O)O)N1

Assays:
[1] = system: conditioned medium from MCF7/6 mammary carcinoma cells; assay: Degradation in conditioned medium from MCF7/6 mammary carcinoma cells (HPLC)
[2] = system: conditioned medium from HepG2 hepatocarcinoma cells; assay: Degradation in conditioned medium from HepG2 hepatocarcinoma cells; details: β-Ala-Leu-Ala-Leu-DNR incubated at 37 C for 2 hours in HepG2 conditioned medium
[3] = system: MRC5 fibroblast cells; assay: Accumulation in MRC5 normal fibroblast cells (HPLC of cell extracts); details: for Accumulation after 6 h, DOX / Accumulation after 6 h, Leu-DOX: 10 μg eq. DOX/ml
Procedure: At various times, the accumulation of the prodrugs and of their fluorescent metabolites was determined by HPLC after extraction of the products at basic pH according to a method developed in the laboratory. Accumulations, expressed in μg/mg of cellular proteins, were compared with those of DNR and of L-Leu-DNR. The metabolites were identified by determining the retention times of reference products synthesized in the laboratory.
(§7) After various times, the accumulation of the prodrugs and of their fluorescent metabolites was determined by HPLC after extraction of the products at basic pH according to a method developed in the laboratory. Accumulations, expressed in μg/mg of cellular proteins, were compared with those of DOX and of L-Leu-DOX. The metabolites were identified by determining the retention times of reference products synthesized in the laboratory.

[4] = system: MRC5 fibroblast cells; assay: Cytotoxicity with respect to MRC5 normal cells (72 h, Bradford protein); details: for IC50: Homo sapiens
[5] = system: MCF7/6 human mammary carcinoma cells; assay: Cytotoxicity with respect to MCF7/6 tumor cells (72 h, Bradford protein); details: for IC50: Homo sapiens
[6] = system: MCF7/6 human mammary carcinoma cells; assay: Accumulation in MCF7/6 tumor cells (HPLC of cell extracts)
Procedure: After various times, the accumulation of the prodrugs and of their fluorescent metabolites were determined by HPLC after extraction of the products at basic pH according to a method developed in the laboratory. Accumulations, expressed in μg/mg of cellular proteins, were compared with those of DNR and of DOX as well as with those of L-Leu-DNR and L-Leu-DOX. The metabolites were identified by determining the retention times of reference products synthesized in the laboratory.
as §7

[7] = system: female NMRI mice; assay: In vivo acute toxicity, intravenous route; parameters: species or system mouse
Procedure: (§1) In the in vivo study of the acute toxicity of a medicinal product, determination of the median lethal dose (lethal dose for 50% of the animals or LD50) occupies an important place. […] The LD50 is a simple test in which increasing amounts of the test product are administered intravenously (i.v.) in a single injection and intraperitoneally (i.p.) in 5 injections, one injection daily for 5 consecutive days. The mortality of the animals is monitored as a function of time. At the end of the observation period, usually 30 days, the value of the LD50 is obtained by linear regression of the percentage mortality (on a probit scale) as a function of the logarithm of the dose administered (O. K. Chan and A. W. Hayes, Principles and methods for acute toxicity and eye irritancy, in Principles and methods of toxicology, Second edition. Ed. by A. W. Hayes, Raven Press, New York, USA (1989), pp. 169-220; D. Deprez-De Campeneere and A. Trouet. DNA-Anthracycline Complexes. I. Toxicity in mice and chemotherapeutic activity against L1210 Leukaemia off Daunorubicin-DNA and Adriamycin-DNA, Eur. J. Cancer, 16 (1980), pp. 981-986; H. E. Skipper, L. H. Schmidt, A. Goldin and J. M. Venditti. A manual on quantitative drug evaluation in experimental tumor systems, Cancer Chemother. Rep. 17 (1.962), pp. 1-178).
(§2) The acute toxicity of these two drugs was studied via the i.v. and i.p. routes on a single strain of mouse. Female NMRI mice (nonconsanguineous SPF-Han, approximately 5 weeks old and of mean weight 14.6 grams, supplied by IFFA-CREDO Belgium) remained in quarantine for one week.
(§3) Injections were performed systematically in the morning (single injection into the caudal vein for the i.v. route and injections on 5 consecutive days into the peritoneum for the i.p. route), using 1.0 ml syringes and sterile 30 G (i.v.) and 27 G (i.p) needles. All handling of animals was performed with gloves, and maintenance of the animals was performed systematically every week.
(§4) DNR was injected i.v. at doses of 10, 15, 20, 25, 30 and 35 mg/kg and i.p. at doses of 2.0; 2.5; 3.0 and 3.5 mg/kg.
(§5) The concentrations of the solutions were verified by spectrophotometry.
(§6) From the day of injection (DO) onwards, the mice were monitored clinically, with a daily record of dead mice. The weight of the mice was measured almost every day. The observation period was extended beyond one month so that the signs of late toxicity could be spotted more readily. At the end of the study, the surviving mice were sacrificed, according to the standards pertaining to animal experiments (D. B. McGregor. Ethics in experiments on animals, in Experiments in toxicology, First edition. Ed. by D. Anderson and D. M. Conning. The Royal Society of Chemistry and The Universities Press. Belfast, Ireland (1988), pp. 512-522).

[8] = system: female NMRI mice; assay: In vivo acute toxicity, intraperitoneal route, 5 consecutive days; parameters: species or system mouse; details: i.p. on 5 consecutive days
Procedure: as §1, §2, §3, §4, §5, §6

[9] = system: conditioned medium from MCF7/6 mammary carcinoma cells
[10] = β-Ala-Leu-Ala-Leu-DOX incubated at 37 C in MCF7/6 conditioned medium concentrated 20 times, share of each species

Starting material or Metabolite, Time 0 ([1]; β-Ala-Leu-Ala-Leu-DNR incubated at 37 C in MCF7/6 conditioned medium concentrated 20 of 40 times, share of each species by HPLC): 0% | Starting material or Metabolite, After 1 hour ([1]; β-Ala-Leu-Ala-Leu-DNR incubated at 37 C in MCF7/6 conditioned medium, share of each species by HPLC, 1 hour): <1% | Starting material or Metabolite, After 2 hours ([1]; β-Ala-Leu-Ala-Leu-DNR incubated at 37 C in MCF7/6 conditioned medium, share of each species by HPLC): <1% | main metabolites found, % of the total fluorescence [2]: 8%
Molecule: COc1cccc2c1C(=O)c1c(O)c3c(c(O)c1C2=O)C[C@@](O)(C(C)=O)C[C@@H]3O[C@H]1C[C@H](NC(=O)[C@H](CC(C)C)NC(=O)[C@H](C)N)[C@H](O)[C@H](C)O1 [L-Ala-L-Leu-DNR]

Starting material or Metabolite, After 2 hours [1, 10]: <1% | Starting material or Metabolite, Time 0 [1, 10]: 0%
Molecule: COc1cccc2c1C(=O)c1c(O)c3c(c(O)c1C2=O)C[C@@](O)(C(=O)CO)C[C@@H]3O[C@H]1C[C@H](NC(=O)[C@H](CC(C)C)NC(=O)[C@H](C)NC(=O)[C@@H](N)CC(C)C)[C@H](O)[C@H](C)O1 [L-Leu-L-Ala-L-Leu-DOX]

Accumulation after 6 h, DOX ([3]; MRC5 cells): 0.3 μg/mg cellular prot. | Accumulation after 6 h, Leu-DOX ([3]; MRC5 cells): 1.4 μg/mg cellular prot. | Accumulation after 6 h, DOX ([3]; MRC5 cells, listed as Leu-DOX): 0.30 μg/mg cellular prot. | Accumulation after 6 h, Leu-DOX ([3]; MRC5 cells, listed as Leu-DOX): 1.40 μg/mg cellular prot. | Starting material or Metabolite, After 2 hours [1, 10]: 68% | Starting material or Metabolite, Time 0 [1, 10]: 0% | Accumulation after 6 h, DOX ([6]; MCF7/6 cells, 10 μg eq. DOX/ml): 0.25 μg/mg cellular prot. | Accumulation after 6 h, Leu-DOX ([6]; MCF7/6 cells, 10 μg eq. DOX/ml): 1.10 μg/mg cellular prot. | accumulation, times less than DOX ([6]; MCF7/6 cells, after 6 hours): 6 times
Molecule: COc1cccc2c1C(=O)c1c(O)c3c(c(O)c1C2=O)C[C@@](O)(C(=O)CO)C[C@@H]3O[C@H]1C[C@H](NC(=O)[C@@H](N)CC(C)C)[C@H](O)[C@H](C)O1 [L-Leu-DOX, N-L-leucyldoxorubicin]
IC50 (72 h) ([4]; MRC5 cells): 0.30 µg/mL (≈ 0.457 µM) | times less cytotoxic than DOX ([4]; MRC5 cells, 72 hours): 17 times | IC50 (72 h) ([5]; MCF7/6 cells): 0.020 µg/mL (≈ 0.0305 µM) | times less cytotoxic than DOX ([5]; MCF7/6 cells, 72 hours): 8 times

Molecule: COc1cccc2c1C(=O)c1c(O)c3c(c(O)c1C2=O)C[C@@](O)(C(C)=O)C[C@@H]3O[C@H]1C[C@H](N)[C@H](O)[C@H](C)O1 [DNR, daunorubicin]
accumulation plateau ([3]; MRC5 cells, 10 μg/ml, after 6 hours): ~76 μg/mg of cellular proteins | Intracellular concentration, Starting material ([3]; MRC5 cells, 6 hours of incubation, 10 μg eq. DNR/ml): 77.4 μg/mg cellular proteins | mice dying ([7]; single i.v., 25 mg/kg, groups of 7, days 12 to 42): 6 | mortality begins on day ([7]; single i.v., 30 mg/kg): 7 days | mice dead out of 7 at first mortality ([7]; single i.v., 30 mg/kg, day 7): 1 | mortality begins on day ([7]; single i.v., 35 mg/kg): 6 days | mice dead out of 7 at first mortality ([7]; single i.v., 35 mg/kg, day 6): 2 | mortality ([7]; single i.v., 10, 15 and 20 mg/kg): no mortality | day of maximal mean weight loss ([7]; single i.v., 10-35 mg/kg): 7 days | weight recovery of surviving mice ([7]; single i.v., 30 and 35 mg/kg, 30 days after injection): do not recover their initial weight | IC50 ([4]; MRC5): 0.01 ± 0.006 µg/mL (≈ 0.019 µM) | IC50 ([5]; MCF7/6): 0.09 ± 0.004 µg/mL (≈ 0.171 µM) | day on which no mouse is surviving ([8]; 2.0 mg/kg): 29 days | mice dead out of 7 at first mortality ([8]; 2.0 mg/kg, day 11): 1 | mice surviving on day 43 ([8]; 2.5 mg/kg): one | mice dead out of 7 at first mortality ([8]; 2.5 mg/kg, day 11): 2 | day on which no mouse is surviving ([8]; 3.0 mg/kg): 19 days | mice dead out of 7 at first mortality ([8]; 3.0 mg/kg, day 9): 2 | day on which no mouse is surviving ([8]; 3.5 mg/kg): 12 days | mice dead out of 7 at first mortality ([8]; 3.5 mg/kg, day 7): 1 | mortality from day ([8]; dose of 2.0 mg/kg): 11 days | mortality from day ([8]; dose of 2.5 mg/kg): 11 days | mortality from day ([8]; dose of 3.0 mg/kg): 9 days | mortality from day ([8]; dose of 3.5 mg/kg): 7 days | weight loss, % of the initial weight ([8]; irrespective of the dose (2.0-3.5 mg/kg)): 30% | maximum accumulation ([6]; MCF7/6 cells, 10 μg/ml, after 6 hours of incubation): ~15 μg/mg of cellular proteins | Intracellular concentration, Starting material ([6]; MCF7/6 cells, 6 hours of incubation, 10 μg eq. DNR/ml): 14.9 μg/mg cellular proteins | ratio of the intracellular DNR levels (MCF7/6 to MRC5) ([6]; cells incubated in the presence of the compound): 0.19

Hydrolysis, MCF-7/6 Conditioned Medium [9]: +
Molecule: COc1cccc2c1C(=O)c1c(O)c3c(c(O)c1C2=O)CC(O)(C(C)=O)CC3OC1CC(NC(=O)C(CC(C)C)NC(=O)CNC(=O)C(CC(C)C)NC(=O)CN)C(O)C(C)O1 [Gly-L-Leu-Gly-L-Leu-DNR]

Hydrolysis, MCF-7/6 Conditioned Medium [9]: +
Molecule: COc1cccc2c1C(=O)c1c(O)c3c(c(O)c1C2=O)CC(O)(C(C)=O)CC3OC1CC(NC(=O)C(CC(C)C)NC(=O)C(C)NC(=O)C(CC(C)C)NC(=O)C(C)N)C(O)C(C)O1 [L-Ala-L-Leu-L-Ala-L-Leu-DNR]

Hydrolysis, MCF-7/6 Conditioned Medium [9]: +
Molecule: COc1cccc2c1C(=O)c1c(O)c3c(c(O)c1C2=O)CC(O)(C(C)=O)CC3OC1CC(NC(=O)C(CC(C)C)NC(=O)C(C)NC(=O)C(CC(C)C)NC(=O)C(C)NC(=O)C(N)CC(C)C)C(O)C(C)O1 [D-Leu-L-Ala-L-Leu-L-Ala-L-Leu-DNR]

Accumulation after 6 h, DOX ([3]; MRC5 cells): 11.20 μg/mg cellular prot. | intracellular levels of the active therapeutic agent in normal cells compared with tumor cells ([3]; MRC5 versus MCF7/6, 6 h incubation): twice as high
Molecule: COc1cccc2c1C(=O)c1c(O)c3c(c(O)c1C2=O)C[C@@](O)(C(=O)CO)C[C@@H]3O[C@H]1C[C@H](N)[C@H](O)[C@H](C)O1 [DOX, doxorubicin]
IC50 ([4]; MRC5, 72 h, read-out: IC50 (72 h)): 0.018 µg/mL (≈ 0.0331 µM) | IC50 ([5]; MCF7/6, 72 h, read-out: IC50 (72 h)): 0.0025 µg/mL (≈ 0.0046 µM) | Accumulation after 6 h, DOX ([6]; MCF7/6 cells, 10 μg eq. DOX/ml): 6.9 μg/mg cellular prot. and 6.90 μg/mg cellular prot.

Hydrolysis, MCF-7/6 Conditioned Medium [9]: −
Molecule: COc1cccc2c1C(=O)c1c(O)c3c(c(O)c1C2=O)CC(O)(C(=O)CO)CC3OC1CC(NC(=O)C(CC(C)C)NC(=O)C(C)NC(=O)C(CC(C)C)NC(=O)C(C)NC(=O)C2CCC(=O)N2)C(O)C(C)O1 [pGlu-L-Ala-L-Leu-L-Ala-L-Leu-DOX] ([pGlu]ALAL-X1; configuration not given here)

Hydrolysis, MCF-7/6 Conditioned Medium [9]: −
Molecule: COc1cccc2c1C(=O)c1c(O)c3c(c(O)c1C2=O)CC(O)(C(C)=O)CC3OC1CC(NC(=O)C(CC(C)C)NC(=O)C(C)NC(=O)C(CC(C)C)NC(=O)C(C)NC(=O)CCC(=O)O)C(O)C(C)O1 [Succ-L-Ala-L-Leu-L-Ala-L-Leu-DNR]

Starting material or Metabolite, After 2 hours [1, 10]: <1% | Starting material or Metabolite, Time 0 [1, 10]: 0%
Molecule: COc1cccc2c1C(=O)c1c(O)c3c(c(O)c1C2=O)CC(O)(C(=O)CO)CC3OC1CC(NC(=O)C(CC(C)C)NC(=O)C(C)N)C(O)C(C)O1 [L-Ala-L-Leu-DOX]

Hydrolysis, MCF-7/6 Conditioned Medium [9]: +
Molecule: β-Ala-L-Leu-L-Ala-L-Leu-COU
